Data published in US10857201B2, “NNIF and nNIF-related peptides and related methods” (UNIVERSITY OF UTAH RESEARCH FOUNDATION, priority 2016, dated 2020).
“Also recorded” adds a separate entry of the source.

What was measured:
[1] = system: nuclear chromatin decondensation in PMNs; experiment: Nuclear decondensation assay in PMA-treated neutrophils; type: cell-based, human; conditions: PMA 20 nM; peptides 1 nM, Cl-amidine 10 μM, sivelestat 200 nM
Experimental: FIG. 7B is a graph depicting nuclear areas that were measured (n=4) using IMAGEJ™ software (mean nuclear pixel area per cell±SEM). Paired Student's t test, *P<0.05, § P=0.057.
FIG. 12A depicts nuclear decondensation (white arrowheads and magnified image) that were assessed as in FIGS. 7A-7E after a 1 hour preincubation in medium alone, with neutrophil elastase (NE) inhibitor sivelestat (SIVL; 200 nM), or with CRISPP or CRISPP-SCR (both 1 nM) followed by treatment with PMA (20 nM) and an additional 1 hour incubation (n=3). Green fluorescence=nuclear DNA, (60× magnification, scale bar=20 μm). Nuclear area was quantified using IMAGEJ™ software (nuclear pixel area per cell±SEM). One way ANOVA with Tukey's post hoc testing; **P<0.01, ***P<0.001.
Nuclear decondensation was identified as described (see Papayannopoulos V, et al., J Cell Biol. 2010; 191 (3):677-91). Five randomly selected high-power visual fields per sample were captured via confocal microscopy and analyzed for nuclear area using the cell-permeable, fluorescent DNA dye SYTO® Green. The nuclear pixel areas of >100 individual cells per high-power field were determined using IMAGEJ™ software (NIH).

[2] = system: nuclear histone H3 citrullination; experiment: Histone H3 citrullination in PMA-activated neutrophils (immunocytochemistry); type: cell-based, human; conditions: PMA 20 nM, 15 minutes; peptides 1 nM, Cl-amidine 10 μM
Source text: Green fluorescence=citrullinated-histone H3, magenta fluorescence=nuclear DNA (60× magnification; scale bar=20 μm). The right panel depicts Histone H3 citrullination that was quantified using IMAGEJ™ software (mean citrullinated-histone H3 pixel area per cell±SEM) (n=3). One way ANOVA with Tukey's post hoc testing, *P<0.05.
Imaging was accomplished via confocal microscopy using a FV1000 IX81 confocal microscope and FLUOVIEW™ software (OLYMPUS™). Semi-quantitation was accomplished using IMAGEJ™ software (NIH) to determine the average citrullinated histone H3 content per cell.

neutrophil elastase (NE) = biological target: T1, neutrophil elastase (NE) (Homo sapiens, UniProt P08246); experiment: Neutrophil elastase activity assay; type: biochemical; conditions: in vitro; (MeOSuc)-AAPV-(pNA) 160 μM, 3 hours, 37° C., and additional assays
T1 construct: purchased SIGMA-ALDRICH
T1 sequence (P08246 30-267): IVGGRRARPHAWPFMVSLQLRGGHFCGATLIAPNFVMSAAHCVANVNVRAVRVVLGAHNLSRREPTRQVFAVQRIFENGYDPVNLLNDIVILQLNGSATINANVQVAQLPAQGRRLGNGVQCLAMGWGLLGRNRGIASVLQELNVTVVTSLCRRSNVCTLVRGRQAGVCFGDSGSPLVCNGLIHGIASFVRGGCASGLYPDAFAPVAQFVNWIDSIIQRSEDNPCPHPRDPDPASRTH
Experimental: FIG. 12B depicts NE enzyme activity that was examined by cleavage of the synthetic substrate (MeOSuc)-AAPV-(pNA) to (MeOSuc)-AAPV and (pNA) as products detected by liquid chromatography and chromatogram peak identification by mass spectroscopy. (MeOSuc)-AAPV-(pNA) (160 μm) was incubated with NE (2 mU), sivelestat (160 μm), or NE and sivelestat (left panel) or with NE (2 mU), nNIF ([…]), or NE and nNIF (right panel) for 3 hours at 37° C. Chromatograms are offset on the X and Y axes for ease of comparison. In the presence of NE alone, the (MeOSvc)-AAPV-(pNA) peak was almost completely eliminated and (MeOSvc)-AAPV and (pNA) peaks were generated. […] In contrast, it was not inhibited by nNIF.
Synthetic fluorogenic substrate of NE, (MeOSuc)-AAPV-(pNA) (160 μM), was incubated with bioactive NE (500 nM)±the NE inhibitor, sivelestat (160 μM) or nNIF (50 nM), for 3 hours at 37° C. The reactions were quenched with 5% glacial acetic acid and centrifuged at 14,000 rpm for 5 minutes. Chromatograms were obtained using an AGILENT™ 1100 Series HPLC and a PHENOMENEX® 5 μm C18 LUNA® column (100 Å, 4.6×150 mm) over a 30 minute 10% to 90% B gradient (Buffer A 0.1% TFA in H2O, Buffer B 0.1% TFA in ACN). Mass spectra were obtained for secondary validation of the reaction products using an API® 3500 triple quadrupole mass spectrometer. Chromatograms were offset on both the X and Y axes (by 0.5 minutes and 0.1 A214, respectively) for greater visibility.

previously-formed NETs = experiment: Post-treatment of previously formed NETs (dismantling); type: cell-based, human; conditions: agent added after LPS stimulation; nNIF, CRISPP 1 nM; DNase 3.78 U/mL
Experimental: FIG. 4A is a series of images depicting neutrophils isolated from venous blood of healthy adults that were incubated in medium alone (Control) or activated with LPS (100 ng/mL). CRISPP (1 nM) was added at 0, 30, or 60 minutes after LPS, and the presence of NETs was assessed by live cell imaging as in FIG. 1A after an additional 1 hour of incubation (20× magnification; scale bar=100 μm). The images are representative of three separate experiments.
(§1) For selected experiments, primary PMNs were pre-incubated with autologous plasma, cord blood plasma, nNIF (0.2-70 nM), CRISPP (0.2-70 nM), nNIF-SCR (1 nM), or CRISPP-SCR (1 nM) for one hour prior to stimulation. After pre-incubation and/or stimulation, PMNs were gently washed with PBS and incubated with a mixture of cell permeable (SYTO® Green, MOLECULAR PROBES®) and impermeable (SYTOX® Orange, MOLECULAR PROBES®) DNA fluorescent dyes. Confocal microscopy was accomplished using a FV1000 IX81 confocal microscope and FLUOVIEW™ software (OLYMPUS™). Both 20× and 60× objectives were used. Z-series images were obtained at a step size of 1 μm over a range of 20 μm for each field. FLUOVIEW™ and ADOBE™ PHOTOSHOP™ CS2 software was used for image processing.

[3] = system: neutrophil extracellular trap (NET) formation; experiment: In vitro NET formation by stimulated human PMNs (live cell imaging, NET-associated histone H3 release); type: cell-based; conditions: for NET formation triggered by LPS: adult PMNs preincubated with agent, LPS 100 ng/mL, 1 hour
Experimental: as §1, with “Qualitative assessment of NET formation was performed as previously reported (see Yost C C, et al., Blood. 2009; 113 (25):6419-27 and McInturff A M, et al., Blood. 2012; 120 (15):3118-25). Briefly, primary PMNs isolated from preterm infants, healthy term infants, and healthy adults (2×10^6 cells/mL) were incubated with control buffer or stimulated with indicated agonists or bacteria for 1 hour at 37° C. in 5% CO2/95% air on glass coverslips coated with poly-L-lysine. For” for “For”
Using BSL 2 safety protocols, primary PMNs isolated from healthy adults (2×10^6 cells/mL) were incubated with mock infection buffer or live dengue virus (M010.05) as for live cell imaging. After a 1-hour incubation, the infected PMNs were fixed with 2% p-FA for 10 minutes prior to incubation with fluorescently-labeled, cell-permeable and cell-impermeable DNA dyes, and imaged as for live cell imaging using confocal microscopy.
NET-associated histone H3 content was determined as previously described (see McInturff A M, et al., Blood. 2012; 120 (15):3118-25). After live cell imaging of control and stimulated primary PMNs (2×10^6/mL; various agonists), the cells were incubated with PBS containing DNase (40 U/mL) for 15 minutes at room temperature to break down and release NETs formed in response to stimulation. The supernatant was gently removed and centrifuged at 420×g for 5 minutes. The cell-free supernatant was then mixed 3:1 with 4× Laemmli buffer prior to western blotting. A polyclonal primary antibody against human histone H3 protein (CELL SIGNALING®) and infrared-conjugated secondary antibodies (LI-COR®) were used. Imaging and densitometry were performed on the ODYSSEY® infrared imaging system)(LI-COR®). This assay was previously validated as a surrogate for NET formation under in vitro conditions (see McInturff A M, et al., Blood. 2012; 120 (15):3118-25) as employed in the present studies.
Without being bound by any specific theory, it was hypothesized that placentally expressed HTRA1, a serine protease, regulates the formation of NET-inhibitory peptides through cleavage of AAT. To test this hypothesis, term and preterm placenta were assessed for HTRA1 expression via western blotting. HTRA1 and AAT plasma expression from term and preterm infants and adults were determined by ELISA. Bioactive (0.5 μg) or placental eluted HTRA1 was incubated with AAT (8 μM) for 18 hours at 37° C. Carboxy-terminus fragments of AAT were detected using western blotting and mass spectrometry. The reaction products were incubated for 1 hour with PMNs isolated from healthy adults prior to LPS stimulation (100 ng/mL) and assessed for NET formation using live cell imaging. Reactive oxygen species were assessed using flow cytometry, chemotaxis using a modified Boyden chamber assay, and bacterial killing using E. coli.

recombinant PAD4 = biological target: T2, recombinant PAD4 (Homo sapiens, UniProt Q9UM07); experiment: Cell-free PAD4 deimination assay; type: biochemical; conditions: initial comparison of NRPs
T2 construct: purchased CAYMAN
Experimental: One way ANOVA with Tukey's post hoc testing, ***P<0.001.
nNIF inhibition of PAD4 activity was determined using a PAD4 inhibitor screening assay kit (CAYMAN™). Briefly, nNIF (1 nM) was incubated with recombinant PAD4 and PAD4 enzyme substrate (2 mM) in PAD4 assay reagent for 30 minutes at 37° C. […] The reaction was stopped with PAD4 Stop Solution and detected using an included ammonia detector assay. Ammonia detector fluorescence was measured at 470 nm following excitation at 405 nm on a SPECTRAMAX™ M5 fluorescence plate reader (MOLECULAR DEVICES™).

T2 sequence (Q9UM07 whole entry): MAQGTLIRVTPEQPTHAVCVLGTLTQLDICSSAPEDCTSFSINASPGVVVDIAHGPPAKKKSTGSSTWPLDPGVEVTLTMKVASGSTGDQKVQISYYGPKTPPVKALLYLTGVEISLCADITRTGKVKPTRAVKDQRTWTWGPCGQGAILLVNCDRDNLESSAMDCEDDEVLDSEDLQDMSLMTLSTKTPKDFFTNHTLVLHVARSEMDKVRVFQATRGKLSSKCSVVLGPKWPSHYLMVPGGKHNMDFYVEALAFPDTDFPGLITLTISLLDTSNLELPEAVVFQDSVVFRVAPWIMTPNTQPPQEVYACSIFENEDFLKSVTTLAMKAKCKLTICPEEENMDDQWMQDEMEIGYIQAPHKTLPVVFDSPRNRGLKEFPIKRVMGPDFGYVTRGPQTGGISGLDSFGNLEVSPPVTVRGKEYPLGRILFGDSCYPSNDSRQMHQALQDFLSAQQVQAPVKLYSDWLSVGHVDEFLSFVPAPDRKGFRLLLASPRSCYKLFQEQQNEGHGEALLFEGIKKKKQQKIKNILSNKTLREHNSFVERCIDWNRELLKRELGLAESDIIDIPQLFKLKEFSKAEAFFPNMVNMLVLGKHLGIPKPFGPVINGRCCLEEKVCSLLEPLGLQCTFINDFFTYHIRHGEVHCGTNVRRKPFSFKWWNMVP

For NC(=O)[C@H](CCCN=C(N)CCl)NC(=O)c1ccccc1 [Cl-amidine, reference compound], which “nuclear decondensation (number of decondensed nuclei)” value [1] is on record?
Its value is “blocked nuclear decondensation”.

And the “nuclear histone H3 citrullination” value [2]?
The value was “inhibited”.

CC(C)(C)C(=O)Oc1ccc(S(=O)(=O)Nc2ccccc2C(=O)NCC(=O)O)cc1 [sivelestat, reference compound] was tested. Which “nuclear decondensation (number of decondensed nuclei)” value [1] did it give?
The value was “blocks nuclear decondensation”.

What about the “NE activity (substrate cleavage)” value (neutrophil elastase (NE)) of the same compound?
Its value is “inhibited but not eliminated”.

For DNase [reference compound], which “degradation or dismantling of previously-formed NETs” value (previously-formed NETs) is on record?
Its value is “dismantled”.

Which “NET formation triggered by LPS” value [3] does the source give for “LNTNKTKMGVQFPKMPFFKQIPVNSLEFV (Scrambled Peptide Control) [nNIF-SCR, scrambled control peptide of nNIF, reference compound]” here?
Its value is “does not”.

With “MFLEAIPMSIPPEVKFNKPFVFLMIEQNTKSPLFMLKVVS (listed as Homo sapiens) [A1ATm^358]” as the compound, how does the “NET formation triggered by LPS” value [3] read?
Its value is “inhibits NET formation, although with lesser potency than nNIF; also recorded: concentration-dependent pattern of inhibition”.

And the “relative inhibition of NETosis (order of potency)” value ([3]; initial comparison of NRPs)?
Its value is “nNIF ≈CRISPP>A1ATm^358”.

What about the “order of potency of inhibition of PAD4” value (recombinant PAD4) of the same compound?
Its value is “nNIF ≈CRISPP>A1ATm^358”.

For “PMVSVAMMLSENIFKLPEVKSVPTEFFPKFINMKLLPFQI (Scrambled Peptide Control) [A1ATm^358-SCR, scrambled A1ATm^358, reference compound]”, which “NET formation triggered by LPS” value [3] is on record?
The value was “not”.

How did the “NET formation (FIG. 14)” value ([3]; agonist not stated) turn out when “SIPPEVKFNKPFVFLMIEQNTKSPLFMGKWNPTQK (listed as Homo sapiens) [HTRA1-CF, synthesized peptide generated by cleavage of A1AT by HTRA1]” was run?
Its value is “inhibits NET formation”.

With alpha-1-antitrypsin [full-length A1AT] as the compound, how does the “NET formation triggered by LPS” value [3] read?
The value was “did not inhibit NET formation”.

Which “NET formation triggered by LPS” value [3] does the source give for “recombinant A1AT: active full-length recombinant A1AT from SIGMA-ALDRICH” here?
Its value is “did not inhibit NET formation”.
